Values of other authors, collected in patent US6830755B2, “Method for relaxing human beings using personal care compositions” (Johnson & Johnson Consumer Companies, Inc., priority 1999, dated 2004).

Tested on: salivary cortisol
Conditions: exposure to fragrance before stressful arithmetic

SMILES: Cc1c[nH]c2ccccc12 [skatole]
- effect on stress induced release of cortisol (in words): had the opposite effect
